In US7473688B2, “Indolobenzazepine HCV NS5B inhibitors” (Bristol-Myers Squibb Company, priority 2005, dated 2009):

Molecular target: T1, HCV NS5B (Hepatitis C virus genotype 1b, UniProt Q9WMX2)
T1 construct: The protein was expressed with an 18 amino acid C-terminal truncation to enhance the solubility; made in house; host or cells: E. coli BL21 (DE3), pET21a
Experiment: HCV NS5B RdRp enzyme assay (preincubation protocol)
Assay type: biochemical
Settings: Table 1, read-out: IC50*
Experimental: HCV NS5B RdRp cloning, expression, and purification. The cDNA encoding the NS5B protein of HCV, genotype 1b, was cloned into the pET21a expression vector. The protein was expressed with an 18 amino acid C-terminal truncation to enhance the solubility. The E. coli competent cell line BL21 (DE3) was used for expression of the protein. Cultures were grown at 37° C. for ˜4 hours until the cultures reached an optical density of 2.0 at 600 nm. The cultures were cooled to 20° C. and induced with 1 mM IPTG. Fresh ampicillin was added to a final concentration of 50 μg/ml and the cells were grown overnight at 20° C.
Cell pellets (3L) were lysed for purification to yield 15-24 mgs of purified NS5B. The lysis buffer consisted of 20 mM Tris-HCl, pH 7.4, 500 mM NaCl, 0.5% triton X-100, 1 mM DTT, 1 mM EDTA, 20% glycerol, 0.5 mg/ml lysozyme, 10 mM MgCl2, 15 ug/ml deoxyribonuclease I, and Complete TM protease inhibitor tablets (Roche). After addition of the lysis buffer, frozen cell pellets were resuspended using a tissue homogenizer. To reduce the viscosity of the sample, aliquots of the lysate were sonicated on ice using a microtip attached to a Branson sonicator. The sonicated lysate was centrifuged at 100,000×g for 1 hr at 4° C. and filtered through a 0.2 μm filter unit (Corning).
The protein was purified using three sequential chromatography steps: Heparin sepharose CL-6B, polyU sepharose 4B, and Hitrap SP sepharose (Pharmacia). The chromatography buffers were identical to the lysis buffer but contained no lysozyme, deoxyribonuclease I, MgCl2 or protease inhibitor and the NaCl concentration of the buffer was adjusted according to the requirements for charging the protein onto the column. Each column was eluted with a NaCl gradient which varied in length from 5-50 column volumes depending on the column type. After the final chromatography step, the resulting purity of the enzyme is >90% based on SDS-PAGE analysis. The enzyme was aliquoted and stored at −80° C.
Standard HCV NS5B RdRp enzyme assay. HCV RdRp genotype 1b assays were run in a final volume of 60 μl in 96 well plates (Costar 3912). The assay buffer is composed of 20 mM Hepes, pH 7.5, 2.5 mM KCl, 2.5 mM MgCl2, 1 mM DTT, 1.6 U RNAse inhibitor (Promega N2515), 0.1 mg/ml BSA (Promega R3961), and 2% glycerol. All compounds were serially diluted (3-fold) in DMSO and diluted further in water such that the final concentration of DMSO in the assay was 2%. HCV RdRp genotype 1b enzyme was used at a final concentration of 28 nM. A polyA template was used at 6 nM, and a biotinylated oligo-dT12 primer was used at 180 nM final concentration. Template was obtained commercially (Amersham 27-4110). Biotinylated primer was prepared by Sigma Genosys. 3H-UTP was used at 0.6 μCi (0.29 μM total UTP). Reactions were initiated by the addition of enzyme, incubated at 30° C. for 60 min, and stopped by adding […] of 50 mM EDTA containing SPA beads (4 μg/μl, Amersham RPNQ 0007). Plates were read on a Packard Top Count NXT after >1 hr incubation at room temperature.
Modified HCV NS5B RdRp enzyme assay. A modified enzyme assay was performed essentially as described for the standard enzyme assay except for the following: The biotinylated oligo dT12 primer was precaptured on streptavidin-coated SPA beads by mixing primer and beads in assay buffer and incubating at room temperature for one hour. Unbound primer was removed after centrifugation. The primer-bound beads were resuspended in 20 mM Hepes buffer, pH 7.5 and used in the assay at final concentrations of […] primer and 0.67 μg/μl beads. Order of addition in the assay: Enzyme (14 nM) was added to diluted compound followed by the addition of a mixture of template (0.2 nM), 3H-UTP (0.6 μCi, 0.29 μM), and primer-bound beads, to initiate the reaction; concentrations given are final. Reactions were allowed to proceed for 4 hours at 30° C.
IC50 values for compounds were determined using seven different [I]. […]

T1 sequence (Q9WMX2 2420-2992): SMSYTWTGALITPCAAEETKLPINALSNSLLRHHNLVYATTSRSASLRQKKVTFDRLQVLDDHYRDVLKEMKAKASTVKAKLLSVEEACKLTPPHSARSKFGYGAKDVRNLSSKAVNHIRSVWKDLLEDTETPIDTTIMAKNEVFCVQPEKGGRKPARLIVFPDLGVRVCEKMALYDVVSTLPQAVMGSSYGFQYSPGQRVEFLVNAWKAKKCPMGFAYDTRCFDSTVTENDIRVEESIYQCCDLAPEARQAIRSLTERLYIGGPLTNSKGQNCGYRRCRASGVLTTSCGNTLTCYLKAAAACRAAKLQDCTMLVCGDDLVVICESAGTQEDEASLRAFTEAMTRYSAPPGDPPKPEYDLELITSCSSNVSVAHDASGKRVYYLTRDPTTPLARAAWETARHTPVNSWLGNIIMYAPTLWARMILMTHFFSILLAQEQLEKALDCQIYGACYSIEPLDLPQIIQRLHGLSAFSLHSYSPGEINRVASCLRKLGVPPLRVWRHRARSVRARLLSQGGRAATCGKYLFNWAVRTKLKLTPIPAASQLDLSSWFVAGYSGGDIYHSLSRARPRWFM

| Structure (SMILES) | IC50 [nM] |
| --- | --- |
| COC(=O)c1ccc2c(C3CCCCC3)c3n(c2c1)CC(C(=O)N1CCC(N2CC[C@H](F)C2)CC1)=Cc1ccccc1-3 | > 1000 |

Same assay, conditions: Table 1a, read-out: IC50*

| Structure (SMILES) | IC50 [nM] |
| --- | --- |
| COC(=O)c1ccc2c(C3CCCCC3)c3n(c2c1)CC(NC(=O)OC(C)(C)C)Cc1ccccc1-3 (centres unmarked) | 10 to 1000 |
| C=CCNC(=O)N1CCN(C(=O)C2=Cc3ccccc3-c3c(C4CCCCC4)c4ccc(C(=O)NS(=O)(=O)N(C)C)cc4n3C2)CC1 | 10 to 1000 |
| CNC(=O)N1CCN(C(=O)C2=Cc3ccccc3-c3c(C4CCCCC4)c4ccc(C(=O)NS(=O)(=O)N(C)C)cc4n3C2)CC1 | 10 to 1000 |
| COC(=O)c1ccc2c(C3CCCCC3)c3n(c2c1)CC(NC(=O)C1CCOCC1)Cc1ccccc1-3 (centres unmarked) | > 1000 |
| O=C(NC[C@@H]1CCCO1)c1ccc2c(C3CCCCC3)c3n(c2c1)CC(C(=O)N1CCC(N2CCOCC2)CC1)=Cc1ccccc1-3 | 10 to 1000 |
| COc1ccc2c(c1)CC(C(=O)N(C)CC(=O)N(C)C)Cn1c-2c(C2CCCCC2)c2ccc(C(=O)NS(=O)(=O)N(C)C)cc21 (centres unmarked) | 10 to 1000 |
| CNC(=O)CNC(=O)C1=Cc2cc(OC)ccc2-c2c(C3CCCCC3)c3ccc(C(=O)O)cc3n2C1 | 10 to 1000 |
| CN(C)C(=O)CNC(=O)c1ccc2c(C3CCCCC3)c3n(c2c1)CC(C(=O)N1CCC(N2CCOCC2)CC1)=Cc1ccccc1-3 | 10 to 1000 |
| CNC(=O)CNC(=O)C1=Cc2cc(OC)ccc2-c2c(C3CCCCC3)c3ccc(C(=O)NS(=O)(=O)N(C)C)cc3n2C1 | 10 to 1000 |
| O=C(NCCc1nc2ccccc2[nH]1)c1ccc2c(C3CCCCC3)c3n(c2c1)CC(C(=O)N1CCC(N2CCOCC2)CC1)=Cc1ccccc1-3 | 10 to 1000 |
| COC(=O)c1ccc2c(C3CCCCC3)c3n(c2c1)CC(NC(=O)NC1CCN(C(=O)C(F)(F)F)CC1)Cc1ccccc1-3 (centres unmarked) | > 1000 |
| CN1CCN(C(=O)C2=Cc3ccccc3-c3c(C4CCCCC4)c4ccc(C(=O)NS(=O)(=O)N(C)C)cc4n3C2)CC1=O | 10 to 1000 |
| CN(C)C(=O)CN(C)C(=O)C1=Cc2ccccc2-c2c(C3CCCCC3)c3ccc(C(=O)O)cc3n2C1 | 10 to 1000 |
| COc1ccc2c(c1)C=C(C(=O)N(C)CC(=O)O)Cn1c-2c(C2CCCCC2)c2ccc(C(=O)O)cc21 | 10 to 1000 |
| COc1ccc2c(c1)C=C(C(=O)N(C)CC(=O)N1CCOCC1)Cn1c-2c(C2CCCCC2)c2ccc(C(=O)O)cc21 | 10 to 1000 |
| CN(C)C(=O)CN(C)C(=O)C1=Cc2ccccc2-c2c(C3CCCCC3)c3ccc(C(=O)NS(=O)(=O)N(C)C)cc3n2C1 | 10 to 1000 |
| COc1ccc2c(c1)C=C(C(=O)N1CCC[C@@H](OC(C)=O)C1)Cn1c-2c(C2CCCCC2)c2ccc(C(=O)NS(=O)(=O)N(C)C)cc21 | 10 to 1000 |
| CN(C)C(=O)C1CCN(C(=O)C2=Cc3ccccc3-c3c(C4CCCCC4)c4ccc(C(=O)NS(=O)(=O)N(C)C)cc4n3C2)CC1 | 10 to 1000 |
| COc1ccc2c(c1)C=C(C(=O)N(C)CC(=O)N1CCOCC1)Cn1c-2c(C2CCCCC2)c2ccc(C(=O)NS(=O)(=O)N(C)C)cc21 | 10 to 1000 |
| COc1ccc2c(c1)C=C(C(=O)N1C[C@@H](C)O[C@@H](C)C1)Cn1c-2c(C2CCCCC2)c2ccc(C(=O)NS(=O)(=O)N3CCN(C)CC3)cc21 | 10 to 1000 |
| COc1ccc2c(c1)C=C(C(=O)N1CCN(C)C(=O)C1)Cn1c-2c(C2CCCCC2)c2ccc(C(=O)NS(=O)(=O)N(C)C)cc21 | 10 to 1000 |
| CCN(CC)C(=O)CN(C)C(=O)C1=Cc2cc(OC)ccc2-c2c(C3CCCCC3)c3ccc(C(=O)NS(=O)(=O)N(C)C)cc3n2C1 | 10 to 1000 |
| COCCNC(=O)CN(C)C(=O)C1=Cc2cc(OC)ccc2-c2c(C3CCCCC3)c3ccc(C(=O)NS(=O)(=O)N(C)C)cc3n2C1 | 10 to 1000 |
| COC(=O)c1ccc2c(C3CCCCC3)c3n(c2c1)CC(NC(=O)C1CCCC(OC)C1)Cc1ccccc1-3 (centres unmarked) | > 1000 |
| COc1ccc2c(c1)CC(C(=O)N(C)CC1CCCO1)Cn1c-2c(C2CCCCC2)c2ccc(C(=O)NS(=O)(=O)N(C)C)cc21 (centres unmarked) | 10 to 1000 |

| Structure (SMILES) | IC50 [nM] |
| --- | --- |
| COc1ccc2c(c1)CC(C(=O)N(C)CC1CCCO1)Cn1c-2c(C2CCCCC2)c2ccc(C(=O)O)cc21 (centres unmarked) | 10 to 1000 |
| COC(=O)c1ccc2c(C3CCCCC3)c3n(c2c1)CC(C(=O)NCC1CCCO1)Cc1cc(OC)ccc1-3 (centres unmarked) | > 1000 |
| COc1ccc2c(c1)C=C(C(=O)N1CCC[C@H](OC(C)=O)C1)Cn1c-2c(C2CCCCC2)c2ccc(C(=O)NS(=O)(=O)N(C)C)cc21 | 10 to 1000 |
| COc1ccc2c(c1)C=C(C(=O)N1CCC(C(=O)N(C)C)CC1)Cn1c-2c(C2CCCCC2)c2ccc(C(=O)NS(=O)(=O)N(C)C)cc21 | 10 to 1000 |
| COc1ccc2c(c1)CC(N(C)C(=O)N1C[C@@H](C)O[C@@H](C)C1)Cn1c-2c(C2CCCCC2)c2ccc(C(=O)O)cc21 (some centres unmarked) | 10 to 1000 |
| COCCNC(=O)CN(C)C(=O)C1Cc2cc(OC)ccc2-c2c(C3CCCCC3)c3ccc(C(=O)NS(=O)(=O)N(C)C)cc3n2C1 (centres unmarked) | 10 to 1000 |
| CCN(CC)C(=O)CN(C)C(=O)C1Cc2cc(OC)ccc2-c2c(C3CCCCC3)c3ccc(C(=O)NS(=O)(=O)N(C)C)cc3n2C1 (centres unmarked) | 10 to 1000 |
| COc1ccc2c(c1)CC(N(C)C(=O)N1C[C@@H](C)O[C@@H](C)C1)Cn1c-2c(C2CCCCC2)c2ccc(C(=O)NS(=O)(=O)N(C)C)cc21 (some centres unmarked) | 10 to 1000 |
| COC1CCCC(C(=O)N(C)C2Cc3ccccc3-c3c(C4CCCCC4)c4ccc(C(=O)NS(=O)(=O)N(C)C)cc4n3C2)C1 (centres unmarked) | 10 to 1000 |
| COC1CCCC(C(=O)N(C)C2Cc3ccccc3-c3c(C4CCCCC4)c4ccc(C(=O)O)cc4n3C2)C1 (centres unmarked) | 10 to 1000 |
| COC(=O)c1ccc2c(C3CCCCC3)c3n(c2c1)CC(NC(=O)C1CCOCC1)Cc1cc(OC)ccc1-3 (centres unmarked) | 10 to 1000 |
| COc1ccc2c(c1)C=C(C(=O)N1CCN(C(=O)CN)CC1)Cn1c-2c(C2CCCCC2)c2ccc(C(=O)NS(=O)(=O)N(C)C)cc21 | < 20 |
| COc1ccc2c(c1)CC(C(=O)N1CCN(C(=O)N(C)C)CC1)Cn1c-2c(C2CCCCC2)c2ccc(C(=O)NS(=O)(=O)N(C)C)cc21 (centres unmarked) | 10 to 1000 |
| COC(=O)c1ccc2c(C3CCCCC3)c3n(c2c1)CC(C(=O)N1C[C@@H](C)N(C)[C@@H](C)C1)=Cc1cc(F)ccc1-3 | 10 to 1000 |
| COc1ccc2c(c1)CC(N(C)C(=O)C1CCOCC1)Cn1c-2c(C2CCCCC2)c2ccc(C(=O)NS(=O)(=O)N(C)C)cc21 (centres unmarked) | 10 to 1000 |
| COc1ccc2c(c1)CC(N(C)C(=O)C1CCOCC1)Cn1c-2c(C2CCCCC2)c2ccc(C(=O)O)cc21 (centres unmarked) | < 20 |
| CC(=O)NC1Cc2ccccc2-c2c(C3CCCCC3)c3ccc(C(=O)NS(=O)(=O)N(C)C)cc3n2C1 (centres unmarked) | 10 to 1000 |
| COc1ccc2c(c1)C=C(C(=O)N1CCC(C(=O)N(C)C)CC1)Cn1c-2c(C2CCCCC2)c2ccc(C(=O)NS(=O)(=O)N3CCN(C)CC3)cc21 | 10 to 1000 |
| C[C@@H]1CN(C(=O)C2=Cc3ccccc3-c3c(C4CCCCC4)c4ccc(C(=O)NS(=O)(=O)OCC(C)(C)C)cc4n3C2)C[C@H](C)O1 | 10 to 1000 |
| C[C@@H]1CN(C(=O)C2=Cc3cc(F)ccc3-c3c(C4CCCCC4)c4ccc(C(=O)O)cc4n3C2)C[C@H](C)N1C | 10 to 1000 |
| COc1ccc2c(c1)C=C(C(=O)N1C[C@@H](C)N(C)[C@@H](C)C1)Cn1c-2c(C2CCCCC2)c2ccc(C(=O)NS(=O)(=O)N(C)C)cc21 | 10 to 1000 |
| COc1ccc2c(c1)C=C(C(=O)N1CCN(CC(F)(F)F)CC1)Cn1c-2c(C2CCCCC2)c2ccc(C(=O)NS(=O)(=O)N3CCOCC3)cc21 | 10 to 1000 |
| COC(=O)c1ccc2c(C3CCCCC3)c3n(c2c1)CC(C(=O)NCc1ncco1)Cc1cc(OC)ccc1-3 (centres unmarked) | 10 to 1000 |
| O=C(NS(=O)(=O)N1CCOCC1)c1ccc2c(C3CCCCC3)c3n(c2c1)CC(C(=O)N1CCN(CC(F)(F)F)CC1)=Cc1ccccc1-3 | 10 to 1000 |
